In the Deep4Chem optical property database one finds absorption maximum data, which are given here for 39 compounds.

This data set in a line: solvent given as SMILES.

Take `Cc1ccc(CN2/C(=C/C=C3\CCCC(/C=C/C4=[N+](Cc5ccc(C)cc5)c5ccccc5C4(C)C)=C3Cl)C(C)(C)c3ccccc32)cc1`: the absorption maximum (in CO) was found to be 785 nm.
Where the note is “in Cc1ccccc1”, `N#Cc1c(-n2c3ccccc3c3ccccc32)c(-n2c3ccccc3c3ccccc32)c(-n2c3ccccc3c3ccccc32)c(-n2c3ccccc3c3ccccc32)c1-n1c2ccccc2c2ccccc21` displayed an absorption maximum of 402.99 nm.
Turning to `C#CCOc1ccc(/C=C/C2=[N+]3C(=C(c4ccc(N(CC)CC)cc4)c4c(C)cc(C)n4[B-]3(F)F)C(C)=C2)cc1`, under “in CO”, the absorption maximum is on record as 568 nm.
Same read-out and setting: the value for `CC1(C)C(/C=C/C2=C(c3ccc(C(=O)O)cc3)C(=C/C=C3/N(CCCCS(=O)(=O)[O-])c4ccc(S(=O)(=O)[O-])cc4C3(C)C)/CCC2)=[N+](CCCCS(=O)(=O)[O-])c2ccc(S(=O)(=O)[O-])cc21` was 770 nm.
`COc1ccc(C2=C/C(=C\c3ccc([N+](=O)[O-])cc3)C(=O)N2CC(C)C)cc1`: the absorption maximum (in C1COCCO1) came to 465 nm.
As to `Cc1cc(O)c(C(C)C)cc1/N=C/c1ccc(C(F)(F)F)cc1`, the absorption maximum by setting is: (in C1CCCCC1) 355 nm; (in C1CCOC1) 363 nm; (in C1COCCO1) 361 nm; (in CC#N) 357 nm; (in CC(C)(C)O) 368 nm; (in CC(C)O) 367 nm. For the same compound, the absorption maximum (in CCCCCC) came to 353 nm; the absorption maximum (in CCCCO) came out at 367 nm; the absorption maximum (in CCO) came to 364 nm; the absorption maximum (in CCOC(C)=O) was 347 nm; the absorption maximum (in CN(C)C=O) came to 364 nm; the absorption maximum (in CO) amounted to 361 nm. The absorption maximum reads like this: (in CS(C)=O) 366 nm; (in ClC(Cl)Cl) 344 nm; (in ClCCl) 343 nm; (in O) 358 nm; (in OCCO) 363 nm.
`N#Cc1ccc(C#Cc2ccc(C#Cc3ccc(C#Cc4ccccc4C#N)cc3C#N)cc2C#N)cc1` gave an absorption maximum (in C1CCOC1) of 356 nm; an absorption maximum (in CC#N) of 352 nm; an absorption maximum (in CN(C)C=O) of 357 nm; an absorption maximum (in ClC(Cl)Cl) of 357 nm; an absorption maximum (in c1ccccc1) of 358 nm.
On to `c1ccc(-c2nc(-c3ccccc3)nc(-c3ccc(-c4ccc5c(c4)C4(c6ccccc6-c6ccccc64)c4cc(-c6ccc(-c7nc(-c8ccccc8)nc(-c8ccccc8)n7)cc6)ccc4N5c4ccccc4)cc3)n2)cc1`, for which the absorption maximum (in c1cc(-c2cccc(-n3c4ccccc4c4ccccc43)c2)cc(-n2c3ccccc3c3ccccc32)c1) worked out at 405.11 nm.
In the case of `COc1cc(OC)cc(C2=C3C(C)=C(I)C(C)=[N+]3[B-](F)(F)n3c(/C=C/c4c[nH]c5ccccc45)c(I)c(C)c32)c1`, the absorption maximum runs as follows: (in C1CCOC1) 627 nm; (in CS(C)=O) 636 nm; (in ClCCl) 618 nm.
In the case of `CON(C)C(=O)c1ccc(/C=C/c2ccc(/C=C/c3ccc(C(=O)N(C)OC)cc3)cc2)cc1`, under “in c1ccccc1”, the absorption maximum is given as 368 nm.
As for `c1ccc(Cn2c3sccc3c3c4nsnc4c4c5ccsc5n(Cc5ccccc5)c4c32)cc1`, the absorption maximum is, setting by setting: (in Cc1ccccc1) 424 nm; (in ClCCl) 424 nm.
For the compound `C(=C\c1ccc2ccccc2c1)/c1ccc(N(c2ccccc2)c2ccccc2)cc1`, the absorption maximum is, setting by setting: (in CC#N) 371 nm; (in CCCCCC) 371 nm.
As to `COc1ccc(-c2ccc3c(c2)c2cc(-c4ccc(OC)cc4)ccc2n3-c2ccc(C(=O)c3ccc4sc5ccccc5c4c3)nc2)cc1`, the absorption maximum (in Cc1ccccc1) came to 390 nm.
The compound `C(=C\c1ccnc2ccccc12)/c1ccc(/C=C/c2ccnc3ccccc23)cc1` came in with an absorption maximum (in C1CCCCC1) of 364 nm; an absorption maximum (in C1COCCO1) of 370 nm; an absorption maximum (in CC#N) of 370 nm; an absorption maximum (in CC(C)=O) of 371 nm; an absorption maximum (in CC(C)O) of 374 nm; an absorption maximum (in CCCO) of 374 nm. In addition, the absorption maximum came out at 374 nm (in CCO); 378 nm (in CN(C)C=O); 374 nm (in CO); 382 nm (in CS(C)=O); 370 nm (in ClC(Cl)Cl); 370 nm (in ClCCl). This compound registered an absorption maximum (in OCCO) of 382 nm.
In the case of `Cc1ccc(-c2ccccc2)cc1`, the absorption maximum (in C1CCCCC1) came to 257.4 nm.
For the setting “in ClCCl”, `CC(C)(C)c1ccc(-c2cc(-c3ccc(-c4cc(-c5ccc(C(C)(C)C)cc5)c(C(=O)N5CCOCC5)s4)s3)sc2C(=O)N2CCOCC2)cc1` showed an absorption maximum of 377 nm.
For the compound `CCCCCCCCC1(CCCCCCCC)c2cc3c(cc2-c2sc(-c4ccc(/C=C5\SC(=S)N(CC)C5=O)c5nsnc45)cc21)C(CCCCCCCC)(CCCCCCCC)c1cc(-c2ccc(/C=C4\SC(=S)N(CC)C4=O)c4nsnc24)sc1-3`, the absorption maximum (in ClC(Cl)Cl) amounted to 652 nm.
Regarding `CC1=CC(C)=[N+]2C1=Cc1c3ccccc3c(-c3[nH]c(C)cc3C)n1[B-]2(F)F`, the absorption maximum (in ClCCl) worked out at 609 nm.
In the case of `Cc1cc(O)c(C(C)C)cc1/N=C/c1ccc(O)cc1`, the absorption maximum runs as follows: (in C1CCCCC1) 339 nm; (in C1CCOC1) 342 nm; (in C1COCCO1) 341 nm; (in CC#N) 334 nm; (in CC(C)(C)O) 345 nm; (in CC(C)O) 340 nm. Moreover, the absorption maximum is, setting by setting: (in CCCCCC) 339 nm; (in CCCCO) 340 nm; (in CCO) 340 nm; (in CCOC(C)=O) 340 nm; (in CN(C)C=O) 344 nm; (in CO) 341 nm. For the same compound, the absorption maximum (in CS(C)=O) stood at 346 nm; the absorption maximum (in ClC(Cl)Cl) is 337 nm; the absorption maximum (in ClCCl) turned out to be 335 nm; the absorption maximum (in O) is on record as 342 nm; the absorption maximum (in OCCO) is 342 nm.
Turning to `Cc1ccccc1C1=C2C=c3c(oc4ccccc34)=[N+]2[B-](F)(F)n2c1cc1c3ccccc3oc12`, the absorption maximum (in C1CCCCC1) came out at 586.5 nm, the absorption maximum (in CCOC(C)=O) is listed as 582 nm and the absorption maximum (in CO) was 580.5 nm.
In turn, `CCOC(=O)c1c2c3c(cccc3c3cc4c(cc13)[Si](C)(C)O[Si]4(C)C)N(C)C2=O` registered an absorption maximum (in CC#N) of 376 nm.
Regarding `CC(C)(C)c1ccc(-c2nc(-c3ccc(C(C)(C)C)cc3)nc(-c3ccc(-n4c5ccccc5c5c6oc7ccccc7c6ccc54)c(C#N)c3)n2)cc1`, the absorption maximum (in C1CCOC1) is 379.46 nm.
On to `Cc1ccc(OCc2cc(=O)oc3c2ccc2ccccc23)cc1`, for which the absorption maximum is given as 352 nm (in C1CCOC1); 352 nm (in C1COCCO1); 351 nm (in CCOC(C)=O); 352 nm (in CO); 354 nm (in Cc1ccccc1); 354 nm (in ClCCl).
For the setting “in Cc1ccccc1”, `COCCC1=Cc2nc1ccc1[nH]c(cc1CCOC)c1nc(c(NC(C)=O)cc3[nH]c2cc3CCOC)C(CCOC)=C1` gave an absorption maximum of 670 nm.
Take `C[Si]1(C)C2=CC(=[N+]3CCC3)C=C(F)C2=Nc2c(F)cc(N3CCC3)cc21`: the absorption maximum (in CCO) was found to be 709 nm.
Turning to `CCCSC1=[N+]2C(=C(c3ccccc3)c3ccc(SCCC)n3[B-]2(F)F)C=C1`, the absorption maximum reads like this: (in CC#N) 574 nm; (in CCCCCC) 577 nm; (in CCOC(C)=O) 575 nm; (in CO) 574 nm; (in ClCCl) 579 nm.
The compound `Cc1cc(C)c(B(c2ccc(-n3c4ccccc4c4ccccc43)cc2)c2c(C)cc(C)cc2C)c(C)c1` yielded an absorption maximum (in Cc1ccccc1) of 360 nm.
With `CCCCCCCCn1c(=O)c2cc3cc4cc5c(=O)n(CCCCCCCC)c(=O)c5cc4c(C#Cc4ccc(N(c5ccccc5)c5ccccc5)cc4)c3cc2c1=O`, the absorption maximum (in ClC(Cl)Cl) is listed as 515 nm.
On to `CCC12C(=C3C(=C4c5ccc(-c6ccc(C(C)=O)cc6)cc5S(=O)(=O)C41CC)C(F)(F)C(F)(F)C3(F)F)c1ccc(-c3ccc(C(C)=O)cc3)cc1S2(=O)=O` (configuration not stated), for which, where the note is “in C1COCCO1”, the absorption maximum was determined as 456 nm.
For the compound `Cc1ccc(N/C=C/C=[NH+]c2ccc(C)cc2)cc1`, for the setting “in CS(C)=O”, the absorption maximum is 376 nm.
Take `CC1=C2C=CC(C)=[N+]2[B-](F)(F)n2cccc21`: the absorption maximum reads like this: (in CCCCCC) 499 nm; (in CO) 494 nm; (in ClCCl) 498 nm.
As to `C[n+]1ccc(-c2cc[n+](C)cc2)cc1`, the absorption maximum (in CC#N) turned out to be 260 nm.
Where the note is “in ClCCl”, `c1ccc(-n2nc(-c3ccc(N4c5ccccc5Oc5ccccc54)cc3)nc2-c2ccccn2)cc1` gave an absorption maximum of 341 nm.
Compound `CCN(CC)c1ccc(/C=C2\CC/C(=C\c3ccc(N(c4ccc(/C=C5\CC/C(=C\c6ccc(N(CC)CC)cc6)C5=C(C#N)C#N)cc4)c4ccc(/C=C5\CC/C(=C\c6ccc(N(CC)CC)cc6)C5=C(C#N)C#N)cc4)cc3)C2=C(C#N)C#N)cc1` displayed an absorption maximum (in CN(C)C=O) of 590 nm.
Compound `CN1/C(=C/C=C(/C=C/c2sc3ccccc3[n+]2C)c2cc(F)cc(F)c2)Sc2ccccc21` showed an absorption maximum (in CCO) of 644 nm, an absorption maximum (in CO) of 641 nm, an absorption maximum (in CS(C)=O) of 651 nm and an absorption maximum (in O) of 638 nm.
`COc1ccc(C2=[N+]3C(=Nc4c(-c5cc(OC)c(OC)c(OC)c5)c(Br)c(-c5ccc(OC)cc5)n4[B-]3(F)F)C(c3cc(OC)c(OC)c(OC)c3)=C2Br)cc1`: the absorption maximum (in Cc1ccccc1) is 689 nm.
Take `CCN(CC)c1ccc2cc(/C=C/C(=C(C#N)C#N)c3ccc(N(c4ccccc4)c4ccccc4)cc3)c(=O)oc2c1`: the absorption maximum reads like this: (in CC(C)=O) 516 nm; (in CCOC(C)=O) 507 nm; (in CN(C)C=O) 528 nm; (in CS(C)=O) 536 nm; (in Cc1ccccc1) 493 nm; (in ClCCl) 518 nm.
Consider `C[C@@]12SC(Cl)=CC1=c1nc(-c3ccc(Cl)cc3)[nH]c1=C1C=C(Cl)S[C@]12C`, for which the absorption maximum (in CC#N) was 327 nm.
Take `F[B-]1(F)n2c(-c3ccccc3)cc(-c3ccccc3)c2C=C2C(c3ccccc3)=CC(c3ccccc3)=[N+]21`: the absorption maximum (in C1CCOC1) is 571 nm.
